Test results from PMC5599990, “Matriptase Induction of Metalloproteinase‐Dependent Aggrecanolysis In Vitro and In Vivo: Promotion of Osteoarthritic Cartilage Damage by Multiple Mechanisms” (Arthritis & Rheumatology (Hoboken, N.j.), 2017).

Biological target: T1, matriptase (Homo sapiens, UniProt Q9Y5Y6)
T1 construct: gene ST14; catalytic domain; amino acids 596–855
T1 sequence (Q9Y5Y6 596-855): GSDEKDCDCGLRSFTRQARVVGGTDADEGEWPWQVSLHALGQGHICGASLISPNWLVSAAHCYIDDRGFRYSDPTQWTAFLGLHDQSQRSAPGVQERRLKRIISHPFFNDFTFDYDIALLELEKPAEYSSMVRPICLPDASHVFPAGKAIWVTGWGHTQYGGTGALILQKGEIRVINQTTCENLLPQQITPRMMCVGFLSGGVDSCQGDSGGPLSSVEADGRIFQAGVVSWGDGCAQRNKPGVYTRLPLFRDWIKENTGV
Assay: isothermal titration calorimetry at […] °C ([…] stoichiometry); also enzyme inhibition, Ki =[…]
Assay type: binding

N=C(N)c1cccc(C[C@H](NS(=O)(=O)c2cccc(NC(=O)CCN)c2)C(=O)N2CCC(CCN)CC2)c1 [compound 59, (S)‐3‐amino‐N‐(3‐(N‐(1‐(4‐(2‐aminoethyl)piperidin‐1‐yl)‐3‐(3‐carbamimidoylphenyl)‐1‐oxopropan‐2‐yl)sulfamoyl)phenyl)propanamide × 3HCl]
Kd: 20 nM
